Tests used:
[1] = tested on: aldose reductase; conditions: U.S. Pat. No. 4,130,714; cited from earlier work
[2] = tested on: cataracts in rats; test: Prevention or retardation of cataracts in galactose-fed rats; assay type: in vivo, rat; conditions: 30% galactose diet, A,C,E 0.0025%, B,D 0.01%
Protocol: The compounds to be tested were:
Test compound/diet mixtures were formulated as follows: […]
Similarly, the 0.01% level was designed to provide a drug concentration of 20 mg per kilogram per day.
All animals were fed the Purina Laboratory Chow and water, ad libitum for a two day acclimatization period. The indicated test compound/diet mixture then was introduced to all animals on Study Day 1 and the animals were maintained on this diet throughout thirty days of the study.
Sufficient amounts of test compound/diet mixture were maintained in the food hoppers to allow the animals to eat ad libitum. All aliquots of test compound/diet mixture added to the food hoopers were weighed and the weights, as well as day of addition, recorded.
Twelve animals were assigned to each treatment with each compound at the indicated percentage by total weight of feed. All eyes were examined with a handheld ophthalmoscope and/or penlight.

O=C1NC(=O)C2(CCSc3ccc(F)cc32)N1 (single isomer, unassigned) [d-6'-fluoro-spiro[imidazolidine-4,4'-thiochroman]-2,5' dione]
enhanced activity: activity in preventing chronic diabetic complications [1]

CSc1ccc2c(c1)C1(CCO2)NC(=O)NC1=O (stereo not shown) [A]
50.0%: % of Total Eyes, + (vacuole) ([2]; Study Day 16) | % of Total Eyes, S (snowflake) ([2]; Study Day 16)
70.8%: % of Total Eyes, + (vacuole) ([2]; Study Day 12)
16.7%: % of Total Eyes, + (vacuole) ([2]; Study Day 5) | % of Total Eyes, S (snowflake) ([2]; Study Day 12) | % of Total Eyes, + (vacuole) ([2]; Study Day 24)
33.3%: % of Total Eyes, + (vacuole) ([2]; Study Day 18)
66.7%: % of Total Eyes, + (vacuole) ([2]; Study Day 8) | % of Total Eyes, + (vacuole) ([2]; Study Day 14) | % of Total Eyes, S (snowflake) ([2]; Study Day 18)
15 eyes: Number of Eyes Observed, + (vacuole) ([2]; Study Day 10)
8 eyes: Number of Eyes Observed, ± ([2]; Study Day 6) | Number of Eyes Observed, + (vacuole) ([2]; Study Day 18)
7 eyes: Number of Eyes Observed, S (snowflake) ([2]; Study Day 14)
19 eyes: Number of Eyes Observed, - (Normal) ([2]; Study Day 4)
3 eyes: Number of Eyes Observed, S (snowflake) ([2]; Study Day 10) | Number of Eyes Observed, ± ([2]; Study Day 12) | Number of Eyes Observed, N (nuclear cataract) ([2]; Study Day 30)
4.2%: % of Total Eyes, + (vacuole) ([2]; Study Day 30)
6 eyes: Number of Eyes Observed, ± ([2]; Study Day 8) | Number of Eyes Observed, + (vacuole) ([2]; Study Day 20) | Number of Eyes Observed, + (vacuole) ([2]; Study Day 22)
62.5%: % of Total Eyes, + (vacuole) ([2]; Study Day 10)
58.4%: % of Total Eyes, + (vacuole) ([2]; Study Day 6)
2 eyes: Number of Eyes Observed, - (Normal) ([2]; Study Day 5) | Number of Eyes Observed, - (Normal) ([2]; Study Day 6) | Number of Eyes Observed, - (Normal) ([2]; Study Day 8) | Number of Eyes Observed, - (Normal) ([2]; Study Day 10) | Number of Eyes Observed, + (vacuole) ([2]; Study Day 26) | Number of Eyes Observed, + (vacuole) ([2]; Study Day 28) | Number of Eyes Observed, N (nuclear cataract) ([2]; Study Day 28)
14 eyes: Number of Eyes Observed, + (vacuole) ([2]; Study Day 6)
12.5%: % of Total Eyes, S (snowflake) ([2]; Study Day 10) | % of Total Eyes, N (nuclear cataract) ([2]; Study Day 30)
20 eyes: Number of Eyes Observed, S (snowflake) ([2]; Study Day 24) | Number of Eyes Observed, S (snowflake) ([2]; Study Day 28) | Number of Eyes Observed, S (snowflake) ([2]; Study Day 30)
100.0%: % of Total Eyes, - (Normal) ([2]; Study Day 2) | % of Total Eyes, - (Normal) ([2]; Study Day 3)
91.7%: % of Total Eyes, S (snowflake) ([2]; Study Day 26)
83.3%: % of Total Eyes, S (snowflake) ([2]; Study Day 24) | % of Total Eyes, S (snowflake) ([2]; Study Day 28) | % of Total Eyes, S (snowflake) ([2]; Study Day 30)
1 eyes: Number of Eyes Observed, ± ([2]; Study Day 14) | Number of Eyes Observed, + (vacuole) ([2]; Study Day 30)
75.0%: % of Total Eyes, S (snowflake) ([2]; Study Day 20) | % of Total Eyes, S (snowflake) ([2]; Study Day 22)
5 eyes: Number of Eyes Observed, ± ([2]; Study Day 4)
0%: % of Total Eyes, + (vacuole) ([2]; Study Day 2) | % of Total Eyes, N (nuclear cataract) ([2]; Study Day 2) | % of Total Eyes, S (snowflake) ([2]; Study Day 2) | % of Total Eyes, + (vacuole) ([2]; Study Day 3) | % of Total Eyes, N (nuclear cataract) ([2]; Study Day 3) | % of Total Eyes, S (snowflake) ([2]; Study Day 3) | % of Total Eyes, + (vacuole) ([2]; Study Day 4) | % of Total Eyes, N (nuclear cataract) ([2]; Study Day 4) | % of Total Eyes, S (snowflake) ([2]; Study Day 4) | % of Total Eyes, N (nuclear cataract) ([2]; Study Day 5) | % of Total Eyes, S (snowflake) ([2]; Study Day 5) | % of Total Eyes, N (nuclear cataract) ([2]; Study Day 6) | % of Total Eyes, S (snowflake) ([2]; Study Day 6) | % of Total Eyes, N (nuclear cataract) ([2]; Study Day 8) | % of Total Eyes, S (snowflake) ([2]; Study Day 8) | % of Total Eyes, N (nuclear cataract) ([2]; Study Day 10) | % of Total Eyes, - (Normal) ([2]; Study Day 12) | % of Total Eyes, N (nuclear cataract) ([2]; Study Day 12) | % of Total Eyes, - (Normal) ([2]; Study Day 14) | % of Total Eyes, N (nuclear cataract) ([2]; Study Day 14) | % of Total Eyes, - (Normal) ([2]; Study Day 16) | % of Total Eyes, N (nuclear cataract) ([2]; Study Day 16) | % of Total Eyes, - (Normal) ([2]; Study Day 18) | % of Total Eyes, N (nuclear cataract) ([2]; Study Day 18) | % of Total Eyes, - (Normal) ([2]; Study Day 20) | % of Total Eyes, N (nuclear cataract) ([2]; Study Day 20) | % of Total Eyes, - (Normal) ([2]; Study Day 22) | % of Total Eyes, N (nuclear cataract) ([2]; Study Day 22) | % of Total Eyes, - (Normal) ([2]; Study Day 24) | % of Total Eyes, N (nuclear cataract) ([2]; Study Day 24) | % of Total Eyes, - (Normal) ([2]; Study Day 26) | % of Total Eyes, N (nuclear cataract) ([2]; Study Day 26) | % of Total Eyes, - (Normal) ([2]; Study Day 28) | % of Total Eyes, - (Normal) ([2]; Study Day 30)
16 eyes: Number of Eyes Observed, + (vacuole) ([2]; Study Day 8) | Number of Eyes Observed, + (vacuole) ([2]; Study Day 14) | Number of Eyes Observed, S (snowflake) ([2]; Study Day 18)
0 eyes: Number of Eyes Observed, + (vacuole) ([2]; Study Day 2) | Number of Eyes Observed, N (nuclear cataract) ([2]; Study Day 2) | Number of Eyes Observed, S (snowflake) ([2]; Study Day 2) | Number of Eyes Observed, ± ([2]; Study Day 2) | Number of Eyes Observed, + (vacuole) ([2]; Study Day 3) | Number of Eyes Observed, N (nuclear cataract) ([2]; Study Day 3) | Number of Eyes Observed, S (snowflake) ([2]; Study Day 3) | Number of Eyes Observed, ± ([2]; Study Day 3) | Number of Eyes Observed, + (vacuole) ([2]; Study Day 4) | Number of Eyes Observed, N (nuclear cataract) ([2]; Study Day 4) | Number of Eyes Observed, S (snowflake) ([2]; Study Day 4) | Number of Eyes Observed, N (nuclear cataract) ([2]; Study Day 5) | Number of Eyes Observed, S (snowflake) ([2]; Study Day 5) | Number of Eyes Observed, N (nuclear cataract) ([2]; Study Day 6) | Number of Eyes Observed, S (snowflake) ([2]; Study Day 6) | Number of Eyes Observed, N (nuclear cataract) ([2]; Study Day 8) | Number of Eyes Observed, S (snowflake) ([2]; Study Day 8) | Number of Eyes Observed, N (nuclear cataract) ([2]; Study Day 10) | Number of Eyes Observed, - (Normal) ([2]; Study Day 12) | Number of Eyes Observed, N (nuclear cataract) ([2]; Study Day 12) | Number of Eyes Observed, - (Normal) ([2]; Study Day 14) | Number of Eyes Observed, N (nuclear cataract) ([2]; Study Day 14) | Number of Eyes Observed, - (Normal) ([2]; Study Day 16) | Number of Eyes Observed, N (nuclear cataract) ([2]; Study Day 16) | Number of Eyes Observed, ± ([2]; Study Day 16) | Number of Eyes Observed, - (Normal) ([2]; Study Day 18) | Number of Eyes Observed, N (nuclear cataract) ([2]; Study Day 18) | Number of Eyes Observed, ± ([2]; Study Day 18) | Number of Eyes Observed, - (Normal) ([2]; Study Day 20) | Number of Eyes Observed, N (nuclear cataract) ([2]; Study Day 20) | Number of Eyes Observed, ± ([2]; Study Day 20) | Number of Eyes Observed, - (Normal) ([2]; Study Day 22) | Number of Eyes Observed, N (nuclear cataract) ([2]; Study Day 22) | Number of Eyes Observed, ± ([2]; Study Day 22) | Number of Eyes Observed, - (Normal) ([2]; Study Day 24) | Number of Eyes Observed, N (nuclear cataract) ([2]; Study Day 24) | Number of Eyes Observed, ± ([2]; Study Day 24) | Number of Eyes Observed, - (Normal) ([2]; Study Day 26) | Number of Eyes Observed, N (nuclear cataract) ([2]; Study Day 26) | Number of Eyes Observed, ± ([2]; Study Day 26) | Number of Eyes Observed, - (Normal) ([2]; Study Day 28) | Number of Eyes Observed, ± ([2]; Study Day 28) | Number of Eyes Observed, - (Normal) ([2]; Study Day 30) | Number of Eyes Observed, ± ([2]; Study Day 30)
24 eyes: Number of Eyes Observed, - (Normal) ([2]; Study Day 2) | Number of Eyes Observed, - (Normal) ([2]; Study Day 3)
4 eyes: Number of Eyes Observed, + (vacuole) ([2]; Study Day 5) | Number of Eyes Observed, ± ([2]; Study Day 10) | Number of Eyes Observed, S (snowflake) ([2]; Study Day 12) | Number of Eyes Observed, + (vacuole) ([2]; Study Day 24)
17 eyes: Number of Eyes Observed, + (vacuole) ([2]; Study Day 12)
18 eyes: Number of Eyes Observed, ± ([2]; Study Day 5) | Number of Eyes Observed, S (snowflake) ([2]; Study Day 20) | Number of Eyes Observed, S (snowflake) ([2]; Study Day 22)
79.2%: % of Total Eyes, - (Normal) ([2]; Study Day 4)
25.0%: % of Total Eyes, + (vacuole) ([2]; Study Day 20) | % of Total Eyes, + (vacuole) ([2]; Study Day 22)
29.2%: % of Total Eyes, S (snowflake) ([2]; Study Day 14)
12 eyes: Number of Eyes Observed, + (vacuole) ([2]; Study Day 16) | Number of Eyes Observed, S (snowflake) ([2]; Study Day 16)
22 eyes: Number of Eyes Observed, S (snowflake) ([2]; Study Day 26)
8.3%: % of Total Eyes, - (Normal) ([2]; Study Day 5) | % of Total Eyes, - (Normal) ([2]; Study Day 6) | % of Total Eyes, - (Normal) ([2]; Study Day 8) | % of Total Eyes, - (Normal) ([2]; Study Day 10) | % of Total Eyes, + (vacuole) ([2]; Study Day 26) | % of Total Eyes, + (vacuole) ([2]; Study Day 28) | % of Total Eyes, N (nuclear cataract) ([2]; Study Day 28)

Reference: US4464385A, “Treatment of diabetic complications with hydantoins” (Alcon Laboratories, Inc., priority 1982, dated 1984)
